Reference: patent US20060051868A1, “Methods for increasing conifer somatic embryo initiation, capture, and multiplication” (priority 2001, published 2006)
Like-named read-outs stand apart in the source and are kept apart here.

Columns and labels:
Type in all cases: cell-based
[1] = tested on: Loblolly pine embryogenic cultures; assay: Growth of Loblolly pine embryogenic cultures from single somatic embryos (tissue diameter, area); details: base Media 1191, ABA 1.3 mg/l, standard atmosphere, five weeks
Protocol: Three previously initiated Loblolly pine embryogenic cultures, each representing a different genotype, were grown in liquid media #1133, used as starting material for embryogenic cultures on various treatment media. Using a dissecting scope, individual stage 2 somatic embryos were extracted and placed on treatment media in the center of individual wells on a well plate. Forty embryos were prepared per treatment media, per genotype. Well plates were wrapped in Parafilm® and cultured under standard conditions at room temperature in the dark for four weeks. Embryogenic cultures derived from the single isolated embryos proliferated and spread over the surface of the culture medium. Spreading cultures were roughly circular in shape, radiating from the central embryo. At the end of four weeks, the growth of each culture was measured by measuring colony diameter using a dissecting scope ocular micrometer. Five treatment media were compared to control media #1043 (Table 21). Three media consisted of #1043 supplemented with paclobutrazol at concentrations of 0.33, 1.0 and 3.0 ppm. A B-vitamin treatment contained biotin at 0.05 ppm and folic acid at 0.5 ppm. […] The pH of media containing four different concentrations of MES was compared to that of a non-buffered control media during eight weeks of embryogenic culture growth. Maintenance cultures were established on treatment media using single isolated somatic embryos. Maintenance cultures were prepared and cultured essentially as described in Example 5. The control media was #1043. (See Table 21). The treatment media consisted of #1043 supplemented with 250, 500, 1000 and 1500 mg/l MES. Media pH was adjusted to 5.7 within all treatments prior to autoclaving, pouring and solidification. Immediately after pouring the media, and thereafter at two week intervals, media pH was measured up to the eighth week of culture growth. At each sampling time, four cultures from each media-genotype treatment were destructively sampled to measure the pH of the media directly underlying the growing embryogenic tissue. This experiment measured the effects of ABA, vitamins, culturing in a closed container, and culturing at increased atmospheric pressure on the growth of embryogenic cultures. Maintenance cultures were prepared on well plates using single somatic embryos, essentially as described in Example 5.

[2] = tested on: Loblolly pine initiates; assay: Percentage of Loblolly pine maintenance cultures with mass greater than 200 mg at eight weeks; details: control 33.7
Description: “Initiates” will be used to refer to recently initiated embryogenic tissues still on the initiation media. In this experiment, initiates were transferred to a maintenance and multiplication media directly from the initiation media. Five treatments, consisting of various media or culture conditions were imposed on the these cultures. Treatment media were based on media #1191. (See Table 21.) Initiates derived from eight different cone collections of Loblolly pine were transferred to vials containing 5 ml solid media. Seventy five replications were prepared for each treatment.
The transferred initiates were grown in the various treatments for four weeks, and thereafter transferred to vials containing fresh media (of the same composition utilized during the previous four weeks). At the end of a second four-week period, cultures were carefully removed from the vials and weighed. The percentage of cultures that had attained a mass of 200 mg or more was calculated for each treatment.

[3] = tested on: Loblolly pine megagametophytes; assay: Initiation frequency of embryogenic cultures from Loblolly pine megagametophyte explants
Protocol: Explants were megagametophytes isolated from Loblolly pine summer cones when embryos were at approximately stage 2-4. Seeds were. collected from four individual trees of diverse genotypes. Extracted seeds were soaked in running water for 10 minutes, agitated in 10% liquinox supplemented with 1.1 ml/l of Tween 20 for 10 minutes, and rinsed with water for 30 minutes. Seeds were sterilized in a laminar flow hood by agitating in 20% hydrogen peroxide for 10 minutes and rinsing with sterile deionized water. The seed coat, integuments, and nucellus were removed to isolate the megagametophytes. Culturing was performed in 24-well multi-well culture plates with each well having an approximate volume of 3.0 ml. Two ml of media was poured into each well.
Each replication consisted of eight adjacent wells on a multi-well plate, with one megagametophyte per well, providing three replications per multi-well plate. Twelve replications (for a total of 96 explants) were performed per treatment for each cone collection. The well plates were wrapped in Parafilm®, elastic wrap to minimize evaporation and incubated at 22-24° C. under dark conditions for nine weeks. Initiation frequency was scored for each dish by counting the number of explants which had successfully initiated embryogenic cultures.
The media treatments consisted of: (1) a control media #1043 (see Table 21); (2) media #1218, comprising media #1043 supplemented with 250 mg/l MES buffer; (3) media #1043 supplemented with 0.5 ppm folic acid and 0.05 ppm biotin; and (4) media #1218 supplemented with 0.5 ppm folic acid and 0.05 ppm biotin.
A representative procedure is shown for Loblolly pine. Experimental procedure follow similarly for other conifer but differ slightly in the composition of media used. […] Here, however, each treatment-genotype test consisted of ten replications of ten explants.
The cultures were covered and incubated in the dark at 24-26° C. for nine weeks.
Explants from four Loblolly pine cone collections were prepared and cultured as described in Example 2. The media treatments consisted of control media, #1218, which is media #1043 supplemented. with 250 mg/l MES, and four treatment media, which consist of media #1218 supplemented with 0.33, 1.0, 2.0, and 3.0 ppm paclobutrazol, respectively.
Four cone collections with embryos at stages 2-4 were used. Eighty explants from each cone collection on each media were tested. Seeds were removed from cones and soaked in running water for 10 min. Seeds were then agitated in 10% liquinox containing 1.1 ml/l Tween 20 for 10 min., and then rinsed with running tap water for 30 min. After transferring to a sterile hood, seeds were agitated in 20% H2O2 for 10 min., rinsed with sterile nanopure® H2O five times for 5 to 10 min. intervals, and then placed into a sterile petri dish for dissection. Seeds were dissected by splitting the seed coat, removing the integuments and nucellus. The megagametophyte was placed onto the appropriate medium. Each multi-well test plate contained 2 ml of solid media. Plates were incubated in the dark for 8 weeks and then scored.
The control media, media #1253, is described in detail in Table 16. All test media, #1275, #1421, #1422, and #1423 were comprised of the control media with the addition of a gibberellin inhibitor.

[4] = tested on: conifer; assay: Inventors' observation of initiation frequency in conifer with gibberellins
[5] = base media #1253, 1.0 ppm paclobutrazol, 0.1062 ppm flurprimidol, 1.58 ppm chlormequat-Cl, 0.16 ppm succinic acid-dh, 8 weeks, dark, control 29.5
[6] = base media #1253, 1.0 ppm paclobutrazol, 0.1062 ppm flurprimidol, 1.58 ppm chlormequat-Cl, 0.16 ppm succinic acid-dh, 8 weeks, dark, control 58.6

CC1=CC(=O)CC(C)(C)[C@@]1(O)/C=C/C(C)=C\C(=O)O [ABA, abscisic acid]
Tissue diameter (mm) ([1]; control 4.11): 4.61 mm | Tissue area (mm^2) ([1]; control 13.3): 16.7 mm^2 | % mass >200 mg ([2]; Media 1191 + 1.3 mg/l ABA, cultured at 1.5 atm): 61.2% | % mass >200 mg ([2]; base Media 1191, ABA 1.3 mg/l, brassinolide 0.1 μM + paclobutrazol 1.0 ppm, MES 250 mg/l, biotin 0.05 ppm, folic acid 0.5 ppm): 48.6%

C[N+](C)(C)CCCl [Chlormequat-Cl, chlormequat-Cl]
Initiation Frequency (%) [3, 5]: 36.8% | Extrusion (%) [3, 6]: 61.6%

CC(C)C(O)(c1ccc(OC(F)(F)F)cc1)c1cncnc1 (centres unmarked) [Flurprimidol, flurprimidol]
Extrusion (%) [3]: 59.9% | Initiation Frequency (%) [3]: 36.3%

CN(C)NC(=O)CCC(=O)O [Succinic Acid-DH, succinic acid-DH]
Initiation Frequency (%) [3, 5]: 38.0% | Extrusion (%) [3, 6]: 63.3%

C=C1C[C@]23C[C@@]1(O)CC[C@H]2[C@@]12C=C[C@H](O)[C@@](C)(C(=O)O1)[C@H]2[C@@H]3C(=O)O [gibberellic acid]
effect on initiation frequency in conifer [4]: inhibitory effect
